Assay results: patent US20230159445A1, “STAT INHIBITORY COMPOUNDS AND COMPOSITIONS” (JANPIX LIMITED, priority 2020, published 2023)

How the values were obtained:
[1] = test system: glutathione (GSH); assay: Reactivity Profiling with Glutathione (GSH), half-life by HPLC; conditions: 5 mM glutathione (GSH) in IMDM with 10% FBS
[2] = test system: MV4-11 cells; assay: MV4-11 Cell Cytotoxicity Assay (CellTiter-Blue, 72 h); assay type: cell-based, human; conditions: Homo sapiens, MV4-11; MV-4-11 cells
Outline: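 Cells seeded 24 h before treatment, then exposed 72 h at 37° C, 5% CO2 to inhibitors in triplicate, top concentration 50 μM with 1:2 serial dilutions (0.5% DMSO vehicle). Viability read by CellTiter-Blue fluorescence at 560/590 nm after 1 h.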

half-life at 25 μM [1] [h]	SMILES	IC50 [2] [µM]
4.12 to 9.23	CC(C)(C)c1cc(CN(C(=O)CN(Cc2ccc(Cl)cc2)S(=O)(=O)c2c(F)c(F)c(F)c(F)c2F)c2ccc(C(=O)O)cc2O)cc(C2CC2)c1 [Compound 1015, 4-(N-(3-(tert-butyl)-5-cyclopropylbenzyl)-2-(N-(4-chlorobenzyl)-(2,3,4,5,6-pentafluorophenyl)sulfon-amido)acetamido)-3-hydroxybenzoic acid]	3.16 to 100
4.12 to 9.23	COc1cc(N(Cc2cc(C3CC3)cc(C(C)(C)C)c2)C(=O)CN(Cc2ccc(Cl)cc2)S(=O)(=O)c2c(F)c(F)c(F)c(F)c2F)ccc1C(=O)O [Compound 1017, 4-(N-(3-(tert-butyl)-5-cyclopropylbenzyl)-2-(N-(4-chlorobenzyl)-(2,3,4,5,6-pentafluorophenyl)sulfon-amido)acetamido)-2-methoxybenzoic acid]	0.316 to 1
0.00167 to 2.37	CC(C)c1cc(CN(C(=O)CN(Cc2ccc(Cl)cc2)S(=O)(=O)c2c(F)c(F)c(F)c(F)c2F)c2ccc(C(=O)O)c(O)c2)cc(C2CC2)c1 [Compound 1021, 4-(2-(N-(4-chlorobenzyl)-(2,3,4,5,6-pentafluorophenyl)sulfon-amido)-N-(3-cyclopropyl-5-isopropylbenzyl)acetamido)-2-hydroxybenzoic acid]	3.16 to 100
9.23 to 1670	CC(C)(C)c1cc(CN(C(=O)CN(Cc2ccc(Cl)cc2)S(=O)(=O)c2c(F)c(F)c(F)c(F)c2F)c2ccc(C(N)=O)cc2)cc(C2CC2)c1 [Compound 1031, 4-(N-(3-(tert-butyl)-5-cyclopropylbenzyl)-2-(N-(4-chlorobenzyl)-(2,3,4,5,6-pentafluorophenyl)sulfon-amido)acetamido) benzamide]	1 to 3.16
0.00167 to 2.37	CC(C)(C)c1cc(CN(C(=O)CN(Cc2ccc(Cl)cc2)S(=O)(=O)c2c(F)c(F)c(F)c(F)c2F)c2ccc(C(=O)O)c(F)c2)cc(C2CC2)c1 [Compound 1033, 4-(N-(3-(tert-butyl)-5-cyclopropylbenzyl)-2-(N-(4-chlorobenzyl)-(2,3,4,5,6-pentafluorophenyl)sulfon-amido)acetamido)-2-fluorobenzoic acid]	1 to 3.16
2.37 to 4.12	COc1ccccc1CN(CC(=O)N(Cc1cc(C2CC2)cc(C(C)(C)C)c1)c1ccc(C(=O)O)c(O)c1)S(=O)(=O)c1c(F)c(F)c(F)c(F)c1F [Compound 1037, 4-(N-(3-(tert-butyl)-5-cyclopropylbenzyl)-2-(N-(2-methoxybenzyl)-(2,3,4,5,6-pentafluoro-phenyl)sulfonamido)acetamido)-2-hydroxybenzoic acid]	1 to 3.16
2.37 to 4.12	C[C@H](CC(=O)N(Cc1cc(C2CC2)cc(C(C)(C)C)c1)c1ccc(C(=O)O)c(O)c1)N(Cc1ccc(Cl)cc1)S(=O)(=O)c1c(F)c(F)c(F)c(F)c1F [Compound 1039, (R)-4-(N-(3-(tert-butyl)-5-cyclopropylbenzyl)-3-(N-(4-chlorobenzyl)-(2,3,4,5,6-pentafluorophenyl)sulfon-amido)butanamido)-2-hydroxybenzoic acid]	1 to 3.16
4.12 to 9.23	C[C@@H](CC(=O)N(Cc1cc(C2CC2)cc(C(C)(C)C)c1)c1ccc(C(=O)O)c(O)c1)N(Cc1ccc(Cl)cc1)S(=O)(=O)c1c(F)c(F)c(F)c(F)c1F [Compound 1040, (S)-4-(N-(3-(tert-butyl)-5-cyclopropylbenzyl)-3-(N-(4-chlorobenzyl)-(2,3,4,5,6-pentafluorophenyl)sulfon-amido)butanamido)-2-hydroxybenzoic acid]	3.16 to 100
9.23 to 1670	CC(C)(C)c1cc(CN(C(=O)CN(Cc2ccccc2C(F)(F)F)S(=O)(=O)c2c(F)c(F)c(F)c(F)c2F)c2ccc(C(=O)O)c(O)c2)cc(C2CC2)c1 [Compound 1048, 4-(N-(3-(tert-butyl)-5-cyclopropylbenzyl)-2-(N-(2-(trifluoromethyl)benzyl)-(2,3,4,5,6-pentafluoro-phenyl)sulfonamido)acetamido)-2-hydroxybenzoic acid]	1 to 3.16
9.23 to 1670	CC(C)(C)c1cc(CN(C(=O)CN(Cc2ccc(Cl)cc2)S(=O)(=O)c2c(F)c(F)c(F)c(F)c2F)c2ccc(C(=O)O)cc2OC(F)(F)F)cc(C2CC2)c1 [Compound 1050, 4-(N-(3-(tert-butyl)-5-cyclopropylbenzyl)-2-(N-(4-chlorobenzyl)-(2,3,4,5,6-pentafluorophenyl)sulfon-amido)acetamido)-3-(trifluoromethoxy) benzoic acid]	1 to 3.16
2.37 to 4.12	CC(C)(C)c1cc(CN(C(=O)CCN(Cc2ccc(Cl)cc2)S(=O)(=O)c2c(F)c(F)c(F)c(F)c2F)c2ccc(C(=O)O)c(O)c2)cc(C2CC2)c1 [Compound 1052, 4-(N-(3-(tert-butyl)-5-cyclopropylbenzyl)-3-(N-(4-chlorobenzyl)-(2,3,4,5,6-pentafluorophenyl)sulfon-amido)propanamido)-2-hydroxybenzoic acid]	3.16 to 100
0.00167 to 2.37	O=C(O)c1ccc(N(Cc2cc(Br)cc(C3CC3)c2)C(=O)CN(Cc2ccc(Cl)cc2)S(=O)(=O)c2c(F)c(F)c(F)c(F)c2F)cc1O [Compound 1054, 4-(N-(3-bromo-5-cyclopropylbenzyl)-2-(N-(4-chlorobenzyl)-(2,3,4,5,6-pentafluorophenyl)sulfon-amido)acetamido)-2-hydroxybenzoic acid]	3.16 to 100
9.23 to 1670	CC(C)(C)c1cc(CN(C(=O)CN(Cc2ccc(Cl)cc2)S(=O)(=O)c2c(F)c(F)c(F)c(F)c2F)c2ccc(S(N)(=O)=O)cc2)cc(C2CC2)c1 [Compound 1055, N-(3-(tert-butyl)-5-cyclopropylbenzyl)-2-(N-(4-chlorobenzyl)-(2,3,4,5,6-pentafluorophenyl)sulfon-amido)-N-(4-sulfamoylphenyl) acetamide]	1 to 3.16
4.12 to 9.23	Cc1cc(C(=O)O)ccc1N(Cc1cc(C2CC2)cc(C(C)(C)C)c1)C(=O)CN(Cc1ccc(Cl)cc1)S(=O)(=O)c1c(F)c(F)c(F)c(F)c1F [Compound 1056, 4-(N-(3-(tert-butyl)-5-cyclopropylbenzyl)-2-(N-(4-chlorobenzyl)-(2,3,4,5,6-pentafluorophenyl)sulfon-amido)acetamido)-3-methylbenzoic acid]	0.316 to 1
9.23 to 1670	CC(C)(C)c1cc(CN(C(=O)CN(Cc2ccccc2F)S(=O)(=O)c2c(F)c(F)c(F)c(F)c2F)c2ccc(C(=O)O)cc2N2CCC2)cc(C2CC2)c1 [Compound 1058, 3-(azetidin-1-yl)-4-(N-(3-(tert-butyl)-5-cyclopropylbenzyl)-2-(N-(2-fluorobenzyl)-(2,3,4,5,6-pentafluoro-phenyl)sulfonamido)acetamido)benzoic acid]	0.316 to 1
4.12 to 9.23	CN(C)c1cc(C(=O)O)c(F)cc1N(Cc1cc(C2CC2)cc(C(C)(C)C)c1)C(=O)CN(Cc1ccccc1F)S(=O)(=O)c1c(F)c(F)c(F)c(F)c1F [Compound 1060, 4-(N-(3-(tert-butyl)-5-cyclopropylbenzyl)-2-(N-(2-fluorobenzyl)-(2,3,4,5,6-pentafluoro-phenyl)sulfonamido)acetamido)-5-(dimethylamino)-2-fluorobenzoic acid]	1e-05 to 0.316
4.12 to 9.23	CN(c1cc(C(=O)O)ccc1N(Cc1cc(C2CC2)cc(C(C)(C)C)c1)C(=O)CN(Cc1ccccc1F)S(=O)(=O)c1c(F)c(F)c(F)c(F)c1F)S(C)(=O)=O [Compound 1064, 4-(N-(3-(tert-butyl)-5-cyclopropylbenzyl)-2-(N-(2-fluorobenzyl)-(2,3,4,5,6-pentafluoro-phenyl)sulfonamido)acetamido)-3-(N-methylmethylsulfonamido) benzoic acid]	1 to 3.16
0.00167 to 2.37	O=C(O)c1ccc(N(Cc2cccc(N3CCCC3)c2)C(=O)CN(Cc2ncccc2C(F)(F)F)S(=O)(=O)c2c(F)c(F)c(F)c(F)c2F)c(OC2CC2)c1 [Compound 1160, 3-cyclopropoxy-4-(2-(N-((3-(trifluoromethyl)pyridin-2-yl)methyl)-(2,3,4,5,6-pentafluoro-phenyl)sulfonamido)-N-(3-(pyrrolidin-1-yl)benzyl)acetamido) benzoic acid]	–
9.23 to 1670	COc1cc(C(=O)OC(C)C)ccc1N(Cc1cc(C2CC2)cc(C(C)(C)C)c1)C(=O)CN(Cc1cnccc1C(F)(F)F)S(=O)(=O)c1c(F)c(F)c(F)c(F)c1F [Compound 1172, isopropyl 4-(N-(3-(tert-butyl)-5-cyclopropylbenzyl)-2-(N-((4-(trifluoromethyl)pyridin-3-yl)methyl)-(2,3,4,5,6-pentafluoro-phenyl)sulfonamido)acetamido)-3-methoxybenzoate]	–
0.00167 to 2.37	COc1cc(C(=O)O)ccc1N(Cc1cc(C2CC2)cc(C(C)(C)C)c1)C(=O)CN(Cc1ncc(Cl)cc1F)S(=O)(=O)c1c(F)c(F)c(F)c(F)c1F [Compound 1177, 4-(N-(3-(tert-butyl)-5-cyclopropylbenzyl)-2-(N-((5-chloro-3-fluoropyridin-2-yl)methyl)-(2,3,4,5,6-pentafluorophenyl)sulfon-amido)acetamido)-3-methoxybenzoic acid]	–
9.23 to 1670	COc1cc(O)ccc1N(Cc1cc(C2CC2)cc(C(C)(C)C)c1)C(=O)CN(Cc1cnccc1C(F)(F)F)S(=O)(=O)c1c(F)c(F)c(F)c(F)c1F [Compound 1267, N-(3-(tert-butyl)-5-cyclopropylbenzyl)-N-(4-hydroxy-2-methoxyphenyl)-2-(N-((4-(trifluoromethyl)pyridin-3-yl)methyl)-(2,3,4,5,6-pentafluoro-phenyl)sulfonamido) acetamide]	–

SMILES	half-life at 25 μM [1] [h]	IC50 [2] [µM]
CC(C)COc1cc(CN(C(=O)CN(Cc2ccc(Cl)cc2)S(=O)(=O)c2c(F)c(F)c(F)c(F)c2F)c2ccc(C(=O)O)c(O)c2)cc(OCC2CC2)c1 [Compound 1010, 4-(2-(N-(4-chlorobenzyl)-(2,3,4,5,6-pentafluorophenyl)sulfonamido)-N-(3-(cyclopropylmethoxy)-5-isobutoxybenzyl)acetamido)-2-hydroxybenzoic acid]	2.37 to 4.12	3.16 to 100
